Laboratory results published in patent US9017672B2, “Hexon Tat-PTD modified adenovirus and uses thereof” (Immunicum Aktiebolag, priority 2012, dated 2015).

B1: HP-NAP: Helicobacter pylori Neutrophil Activating Protein, here secreted from virus-transduced cells (protein)
chain: MKTFEILKHLQADAIVLFMKVHNFHWNVKGTDFFNVHKATEEIYEEFADMFDDLAERIVQLGHHPLVTLSEAIKLTRVKEETKTSFHSKDIFKEILEDYKYLEKEFKELSNTAEKEGDKVTVTYADDQLAKLQKSIWMLQAHLA

Columns and labels:
[1] = tested on: cisplatin-insensitive SK-N-FI cells; test: Relative cell viability by MTS assay, virus or drug; type: cell-based
Method: (§1) FIG. 25. Oncolytic adenovirus in combination with chemotherapy drugs. A cisplatin-insensitive clone of SK-N-FI and doxoru bicin-insensitive, etoposide-insensitive and vincristine-insensitive clones of SH-SY-5Y were established through repeated cycles of culture with increasing drug concentration. (A-D) Drug-sensitive (black lines) and drug-insensitive (grey dotted lines) neuroblastoma cells were then treated with viruses or drugs. The relative cell viability was analyzed after 4 days by MTS assay. (A) Oncolytic virus and cisplatin killing of SK-N-FI cells. (B) Oncolytic virus and etoposide killing of SH-SY-5Y cells. (C) Oncolytic virus and doxorubicin killing of SH-SY-5Y cells. (D) Oncolytic virus and vincristine killing of SH-SY-5Y cells. All data are shown as mean±SD from four independent experiments each with triplicate samples. (E) BON, NCI-H727 and QGP-1 cell lines were treated with PTD-based oncolytic adenovirus Ad5PTD(i/CgA-E1a-miR122T6) with different evg/cell in absence or presence of 10 μg/mL or 200 μg/mL cyclophosphamide. The relative cell viability was analyzed after 6 days by MTS assay.
(§2) A cisplatin-insensitive clone of the SK-N-FI neuroblastoma cell line and doxorubicin-, etoposide- and vincristine-insensitive clones of SH-SY-SY were established and treated with viruses at different evg/cell or drugs at various concentrations. The relative cell viability was analyzed by MTS assay. […] Ad5PTD(WT) also killed cisplatin-sensitive and insensitive SK-N-FI with the same efficacy (FIG. 25A).

[2] = tested on: cisplatin-sensitive SK-N-FI cells; test: as above; type: cell-based; conditions: drug
Method: as §1, §2

human neutrophils = test: Transwell migration assay of neutrophils against supernatants of virus-transduced BON cells; type: cell-based; conditions: supernatants 48 hours post-transduction, MOI 10 FFU/cell
Method: (§3) BON cells were transduced with viruses Ad5PTDf35(D24-sNAP) or Ad5PTDf35(D24) at MOI 10 FFU/cell. Supernatants were harvested 48 hours post-transduction. (a) Transwell migration assay of human neutrophils isolated from 4 different individuals (2×10^5 cells/well) against harvested supernatants for 2 hours at 37° C. All samples were analyzed in triplicates and the data is represented as mean±SD of number of cells migrated. Supernatant from untransduced BON cells were used as control, (***p<0.001; n=12). (b) Granulocyte activation assay with supernatants from virus-transduced BON cells for 30 minutes at 37° C. Activation was measured in terms of ROI production, which was monitored using fluorescent dye DHR123. Supernatant from untransduced BON cells were used as control. At least 10000 events were recorded in the flow cytometer and MFI of DHR123 was recorded, (**p<0.01; *p<0.05; n=5). (c) Mice bearing BON tumors were treated with two intratumoral injections of Ad5PTDf35(D24-sNAP) or Ad5PTDf35(Δ24) (Indicated dotted arrows) and 2 mice per group were sacrificed, blood and tumor samples were drawn at different time points (indicated by solid arrows). Serum was separated from blood by centrifugation at 300 g for 10 min. Concentration of various cytokines determined by ELISA are represented in (d) TNF-α, (e) MIP2-α and (f) IL12/23 p40. […] All samples were analyzed in duplicates. […]

neutrophils = test: Granulocyte activation assay, ROI production (DHR123); type: cell-based; conditions: supernatants of transduced BON cells, 30 minutes
Method: as §3

[3] = tested on: TNF-α, MIP2-α, IL12/23 p40; test: Serum cytokines by ELISA after intratumoral virus injections; type: in vivo; conditions: BON tumor-bearing mice, two intratumoral injections
Method: as §3

Row | Molecule | IC50 ([1]; cisplatin-insensitive SK-N-FI, drug) [µM] | more drug needed to kill insensitive compared to sensitive cells ([1]; cisplatin-insensitive vs cisplatin-sensitive SK-N-FI) [fold] | IC50 [2] [µM] | neutrophil migration (human neutrophils) | neutrophil activation, release of reactive oxygen species (neutrophils) | induction of serum cytokines [3]
1 | N.N.[Cl][Pt][Cl] [cisplatin] | 100 | 12 | 8 |  |  | 
2 | B1 |  |  |  | efficiently induce neutrophil migration | activated them to release reactive oxygen species | induced proinflammatory cytokines (TNF-α and MIP2-α) and Th1 type cytokines (IL12/23 p40)
